In patent publication US20210393520A1, “TREATMENT OF GRAM-NEGATIVE FOLLICULITIS OR AN INFLAMMATION THEREOF WITH BESIFLOXACIN” (VYOME THERAPEUTICS LIMITED, priority 2018, published 2021):
Converted amounts (≈) assume the structure as drawn.

Experiments:
Test in all cases: MIC, micro broth dilution in Muller Hinton broth (CLSI), Table 1B
Format in all cases: cell-based
Settings in all cases: read-out: Minimum Inhibitory Concentration
Enterobacter sp. 2 = system: Enterobacter sp. 2
Experimental: (§1) Besifloxacin HCL was tested against ampicillin and cefotaxime (3rd generation cephalosporin) susceptible and resistant gram-negative bacterial strains involved in GNF (gram negative folliculitis) by broth dilution method as per the Clinical & Laboratory Standards Institutes (CLSI) guidelines. MIC assay was performed in 96 well plates by micro broth dilution method, in 96 well plates, all the wells were added with 100 μl of sterilized Muller Hinton broth No: 2 cation broth (HiMedia, India). The initial stock of test compounds (1 mg/ml) were prepared in dimethyl sulfoxide (DMSO) and further dilutions were made in culture broth to get the desirable concentration. Then 100 μl of broth containing test compounds were initially added to the first column's wells and then serial dilution was performed up to well of 10th column. Wells of 11th and 12th column served as a positive and negative control respectively. Finally, 100 μl of inoculum (0.5 McFarland equal bacterial suspension was 100 times diluted in culture broth) was added to all the wells. Plates were incubated at 37° C. for 18-24 hrs. After incubation, MIC of each test compound was determined by observing the lowest concentration of test compound that has no visual growth compared to growth control. Minimum inhibitory concentration of besifloxacin, ampicillin and cefotaxime against gram negative bacterial strains were shown in Table 1.

Enterobacter sp. 523 = system: Enterobacter sp. 523
Experimental: as §1

Escherichia coli 591 = system: Escherichia coli 591
Experimental: as §1

Klebsiella sp. 512 = system: Klebsiella sp. 512
Experimental: as §1

Pseudomonas sp. 537 = system: Pseudomonas sp. 537
Experimental: as §1

Acinetobacter sp. 488 = system: Acinetobacter sp. 488
Experimental: as §1

Escherichia coli 592 = system: Escherichia coli 592
Experimental: as §1

Klebsiella sp. 498 = system: Klebsiella sp. 498
Experimental: as §1

Enterobacter sp. 532 = system: Enterobacter sp. 532
Experimental: as §1

Enterobacter sp. 1 = system: Enterobacter sp. 1
Experimental: as §1

Pseudomonas sp. 556 = system: Pseudomonas sp. 556
Experimental: as §1

MIC (Enterobacter sp. 2) [µg/mL] | MIC (Enterobacter sp. 523) [µg/mL] | MIC (Escherichia coli 591) [µg/mL] | MIC (Klebsiella sp. 512) [µg/mL] | MIC (Pseudomonas sp. 537) [µg/mL] | MIC (Acinetobacter sp. 488) [µg/mL] | MIC (Escherichia coli 592) [µg/mL] | MIC (Klebsiella sp. 498) [µg/mL] | MIC (Enterobacter sp. 532) [µg/mL] | MIC (Enterobacter sp. 1) [µg/mL] | MIC (Pseudomonas sp. 556) [µg/mL] | SMILES
2 (≈ 5.72 µM) | > 128 | 4 (≈ 11.4 µM) | 32 (≈ 91.6 µM) | > 128 | > 128 | > 128 | > 128 | > 128 | > 128 | > 128 | CC1(C)S[C@@H]2[C@H](NC(=O)[C@H](N)c3ccccc3)C(=O)N2[C@H]1C(=O)O [Ampicillin]
0.5 (≈ 1.1 µM) | 128 (≈ 281 µM) | < 0.25 | < 0.25 | 16 (≈ 35.1 µM) | > 128 | 128 (≈ 281 µM) | 64 to 128 (≈ 141 to 281 µM) | 64 (≈ 141 µM) | 128 (≈ 281 µM) | 4 (≈ 8.78 µM) | CO/N=C(\C(=O)N[C@@H]1C(=O)N2C(C(=O)O)=C(COC(C)=O)CS[C@H]12)c1csc(N)n1 [Cefotaxime]
